In article PMC11143312, “Antioxidant, anti-amylase, anti-lipase, and efficiency of Satureja fatty acid on the anti-inflammatory parameters in lipopolysaccharide-stimulated macrophage through Nrf2/NF-kB/NADH oxidase pathway” (Scientific Reports, 2024):
≈ marks a conversion by molar mass, not a printed value.

Key:
[1] = test system: T1, lipase (EC 3.1.1.3, from Saccharomyces cerevisiae); assay: pNPB hydrolysis at […] nm, Lineweaver-Burk plot; format: biochemical; settings: no inhibitor; unit printed as µg, not a concentration; pNPB 0.0–10 mg/mL
T1 construct: gene TGL2; discussion speaks of pancreatic lipase, but the assay used the yeast-labelled enzyme

[2] = target: T1, lipase (EC 3.1.1.3, from Saccharomyces cerevisiae); assay: p-nitrophenyl butyrate hydrolysis, absorbance at […] nm; format: biochemical; settings: 30 min pre-incubation, 37 °C; substrate pNPB; positive control

Structure (SMILES) | Km [1] [µg] | IC50 [2] [µg/mL]
CCCC(=O)Oc1ccc([N+](=O)[O-])cc1 [p-nitrophenyl butyrate] | 5.08 ± 0.23 | 
CCCCCCCCCCC[C@@H](C[C@@H]1OC(=O)[C@H]1CCCCCC)OC(=O)[C@H](CC(C)C)NC=O [orlistat] |  | 213 ± 5.0 (≈ 430 µM)
